What was measured:
NF-κB = NF-κB luciferase reporter gene transcriptional activity in SW480 cells; format: cell-based, human; conditions: 50 μM, 6 hours, SW480 stably transfected (FIG. 3)
Procedure: (§1) NF-κB was the most important inflammatory signal pathway. SW480 human colon cancer cells stably transfected with a luciferase reporter gene driven by NF-κB were used to determine the effects of the compound of the present application and the control drug gemfibrozil on NF-κB transcriptional activity, which comprised the following steps. • (1) Cells stably transfected with NF-κB Luc were cultivated to exponential growth, inoculated at a culture medium concentration of 1×10^5/[…] in a 24-well plate, and cultured for 24 hours, the medium was discarded, and the test compound or gemfibrozil formulated with serum-free medium at 50 μM were added to the 24-well plate and incubation was continued for 6 hours. After washing once with 200 μL of PBS, 100 μL of reporter gene cell lysis buffer was added, the cells were lysed on ice for 10 minutes, and the cell lysate was collected by pipetting. • (2) After centrifugation was performed at 8000 rpm and 4° C. for 10 min, the supernatant was pipetted for fluorescence assay. • (3) The measurement gap time of chemiluminescence analyzer was set to 2 s and the measurement time was set to 10 s. Automatic sample injection was adopted, 50 μL of luciferase assay reagent was added to each well. The reporter gene cell lysis buffer was used as a blank control. • (4) After centrifugation, the supernatant was taken, and the BCA method was used to determine the protein concentration so as to normalize the reporter gene results.

PPARγ = PPARγ mRNA expression by real-time quantitative PCR in HepG2; format: cell-based, human; conditions: 1 μM, 6 hours, HepG2 (FIG. 5B)
Source text: (§2) Peroxisome proliferation factor activated receptor (PPAR) is an important nuclear receptor that regulates glycolipid metabolism, including three subtypes: α, β/δ and γ. Peroxisome proliferator-activated receptor γ coactivator 1α (PGC-1α) is its auxiliary transcriptional activator. Acyl-CoA oxidase 1 (ACOX1) is the first rate-limiting enzyme for fatty acid β oxidation. Fatty acid binding protein 1 (FABP1) is highly expressed in liver, and can bind fatty acid, heme and other molecules to reduce their toxicity and damage. Up-regulating the expression level of these genes helps to improve the body's metabolism, and their agonists are an important class of anti-metabolic drugs. After the compound of the present application (1 μM) and the control drug gemfibrozil (1 μM) were incubated with human liver cancer cells HepG2 for 6 hours, real-time fluorescent quantitative PCR method was used to determine the relative expression of mRNA of related genes in the cells.
(§3) The company which synthesized the primers was Suzhou Hongxun Biotechnology Co., Ltd. Tranzol reagent (Tranzol total RNA extraction reagent, TransGen Biotech) was used to extract total RNA from tissues. 5× All-In-One RT MasterMix reverse transcription kit (Abcam, USA) and real-time quantitative PCR Master Mix (Aidlab Biotechnologies Co., Ltd) were used. Bio-Rad CFX Connect™ Real-Time PCR Detection System for qPCR was used, and 2^−ΔΔCT method was used for data analysis. The expression level of mRNA in the normal control group was set to 1, and the relative expression level of mRNA in the administration group was calculated, so as to confirm whether the active compound affected the PPAR pathway, thereby further regulating lipid metabolism.

phosphorylated IRS-1 = assay: Phosphorylated IRS-1 level by Western blotting in HepG2; format: cell-based, human; conditions: 1 μM, 24 hours, HepG2, Western blotting (FIG. 6C)
Source text: (§4) Carnitine palmitoyltransferase (CPT1α) is a rate-limiting enzyme of fatty acid oxidation. When the body or tissues are lacking in energy, CPT1α catalyzes the entry of fatty acids into mitochondria for […], and at the same time, CPT1α is also involved in the regulation of fatty acid-induced insulin resistance and inflammation. Protein kinase B/glycogen synthase kinase 3β (AKT/GSK3β) signaling pathway and insulin receptor substrate 1 (IRS-1) are key signaling pathways that regulate glucose metabolism in response to insulin signal. Therefore, by determining the effects of compounds on the CPT1α protein level and the AKT, GSK3β and IRS-1 protein phosphorylation levels, it is possible to evaluate the regulatory effects of the compounds on glycolipid metabolism.
(§5) After human liver cancer cells HepG2 were incubated with the compound of the present application or the control drug at 1 μM for 24 hours, the CPT1α protein level and the AKT, GSK3β and IRS-1 phosphorylated protein levels in the cells were determined by Western blotting; after gray-scale scanning by using Image J15.0.1, normalization was performed by using β-tubulin protein level as internal control, and the quantitative analysis results were shown in FIG. 6.

[1] = test system: antioxidant response element (ARE); assay: ARE luciferase reporter gene activity in HepG2 cells; format: cell-based, human; conditions: 50 μM, HepG2 stably transfected (FIG. 4)
Procedure: as §1
In this experimental example, the luciferase activity in HepG2 human liver cancer cells stably transfected with a luciferase reporter gene driven by antioxidant response element (ARE) was determined to evaluate the regulatory effects of the compound of the present application and gemfibrozil on the transcriptional activity of transcription factor Nrf2 and the cellular oxidative stress response signals, in which the operation process of the reporter gene assay was the same as that of Experimental Example 2.2.

PGC1α = PGC1α mRNA expression by real-time quantitative PCR in HepG2; format: cell-based, human; conditions: 1 μM, 6 hours, HepG2 (FIG. 5C)
Source text: as §2, §3

[2] = test system: RAW264.7 mouse macrophages; assay: Determination of NO generation induced by LPS; format: cell-based; conditions: 10 μM, 1 μg/mL LPS, 24 hours, RAW264.7 (FIG. 2)
Procedure: The results are expressed as the multiple of the NO content in the cell culture supernatant of the administration group (10 μM) as compared with that in the cell culture supernatant of the control group (DMSO group), in which compared with the control group, *P<0.05, **P<0.01, ***P<0.001.
NO is a reactive nitrogen species (RNS) and an important gas signal molecule. Macrophages could convert arginine into NO which participated in the body's inflammatory response. Therefore, determination of inhibitory activity of a drug on NO generation was one of the classic methods to evaluate drug's anti-inflammatory ability. RAW264.7 cells at exponential growth phase were inoculated into a 96-well plate at 1×10^4 cells/200 μL. well of medium. After adherence, the medium was discarded, and the cells were subjected to drug treatments. Normal group (serum-free medium), LPS model group (serum-free medium containing 1 μg/mL LPS), LPS+drug group (serum-free medium containing 1 μg/mL LPS, 10 μM gemfibrozil or the compound of the present application) were established, and 3 repeated wells were set for each group. After 24 hours incubation in incubator, cell supernatant of each well was collected and assay was performed according to the instructions of NO determination kit (Nanjing Jiancheng). The absorbance value of each well at wavelength of 540 nm was read and NO content was calculated.

CPT1α = CPT1α protein level by Western blotting in HepG2; format: cell-based, human; conditions: 1 μM, 24 hours, HepG2, Western blotting (FIG. 6A)
Source text: as §4, §5

db/db mice = assay: Diabetes mellitus model (db/db mice); format: in vivo, mouse; conditions: intragastric once a day for 28 days, 50 mg/kg (pioglitazone 6 mg/kg)
Source text: Animal model: C57BL/KsJ-leprdb/leprdb diabetic (db/db) mice were widely used as animal models of type 2 diabetes mellitus, in which spontaneous mutations of leptin receptor (Leptin receptor, Lepr) caused extreme obesity, polyphagia, diabetes and polyuria. In this experiment, db/db mice (purchased from the Department of Animals, Health Science Center of Peking University) were selected. In the experiment, 28 db/db mice were used, and the animals with blood glucose of about 7-13 mmol/L were selected. […] Intragastric administration was adopted with an administration volume of 10 ml/kg. […] The administration was performed once a day for 28 consecutive days. From the day of oral administration, the physiological changes of the animals were observed every day. Blood glucose was measured every 3 days (Roche blood glucose meter) and blood glucose difference (Δ) was calculated by the following formula: blood glucose difference (Δ)=the blood glucose of the day—the initial blood glucose (the initial blood glucose difference was zero). For mice in each experimental group, blood was collected, serum was separated, and liver was taken for wet-weight measurement after necropsy; liver tissue was taken and fixed for pathological examination, H.E. staining and oil red O staining (Wuhan Zishan Biotechnology Co., Ltd.) were performed, and mouse liver lesions were observed under light microscope; routine examination of blood was performed by Animal Laboratory Department, Health Science Center of Peking University to measure the following indexes: white blood cell count (WBC), red blood cell count (RBC), lymphocyte count (LY), platelet (PLT) and so on; biochemical laboratory examination of blood was performed by Laboratory Medicine, Third Hospital, Peking University to measure the following indexes: triglycerides (TG), total cholesterol (T-CHO), high-density lipoprotein cholesterol (HDL-C), low-density lipoprotein cholesterol (LDL-C) and so on.

SMILES	activity of NF-κB reporter gene (NF-κB)	phosphorylation level of IRS-1 (phosphorylated IRS-1)	ARE reporter gene activity [1]	NO generation induced by LPS [2]	also measured
Cc1cc(OCCCC(C)(C)C#N)c(C)cc1Br [BJMU-309, 5-(4-bromo-2,5-dimethylphenoxy)-2,2-dimethylpentanenitrile]	could significantly inhibit the activity of NF-κB reporter gene	significantly increased the phosphorylation level of IRS-1	–	–	PPARγ mRNA expression (PPARγ): significantly induced PPARγ mRNA expression
COc1cc(Br)c(C)cc1OCCCC(C)(C)C(=O)O [BJMU-412, 5-(4-bromo-2-methoxy-5-methylphenoxy)-2,2-dimethylpentanoic acid]	–	significantly increased the phosphorylation level of IRS-1	could significantly activate the ARE reporter gene activity	–	PGC1α mRNA expression (PGC1α): significantly induced PGC1α mRNA expression
Cc1cc(Br)c(C)c(I)c1OCCCC(C)(C)C(=O)O [BJMU-413, 5-(4-bromo-2-iodo-3,6-dimethylphenoxy)-2,2-dimethylpentanoic acid]	–	–	–	could inhibit NO generation	–
Cc1cc(OCCC(C)(C)C(=O)O)c(C)cc1Br [BJMU-111, 4-(4-bromo-2,5-dimethylphenoxy)-2,2-dimethylbutanoic acid]	–	–	–	could inhibit NO generation	–
CCC(C)(CCCOc1cc(C)c(Br)cc1C)C(=O)O (centres unmarked) [BJMU-401, 5-(4-bromo-2,5-dimethylphenoxy)-2-ethyl-2-methylpentanoic acid]	–	–	could significantly activate the ARE reporter gene activity	could inhibit NO generation	–
Cc1cc(Br)c(C)c(O)c1OCCCC(C)(C)C(=O)O [BJMU-415, 5-(4-bromo-2-hydroxy-3,6-dimethylphenoxy)-2,2-dimethylpentanoic acid]	could significantly inhibit the activity of NF-κB reporter gene	significantly increased the phosphorylation level of IRS-1	could significantly activate the ARE reporter gene activity	could inhibit NO generation	PPARγ mRNA expression (PPARγ): significantly induced PPARγ mRNA expression; PGC1α mRNA expression (PGC1α): significantly induced PGC1α mRNA expression; CPT1α protein level (CPT1α): significantly increased CPT1α protein level
Cc1ccc(C)c(OCCCC(C)(C)C(=O)O)c1Cl [BJMU-209, 5-(2-chloro-3,6-dimethylphenoxy)-2,2-dimethylpentanoic acid]	could significantly inhibit the activity of NF-κB reporter gene	significantly increased the phosphorylation level of IRS-1	–	–	–
Cc1cc(OCCCCC(C)(C)C(=O)O)c(C)cc1Br [BJMU-403, 6-(4-bromo-2,5-dimethylphenoxy)-2,2-dimethylhexanoic acid]	–	–	could significantly activate the ARE reporter gene activity	could inhibit NO generation	–
Cc1cc(OCCCC(C)(C)C(=O)O)c(C)c(O)c1Br [BJMU-416, 5-(4-bromo-3-hydroxy-2,5-dimethylphenoxy)-2,2-dimethylpentanoic acid]	–	significantly increased the phosphorylation level of IRS-1	could significantly activate the ARE reporter gene activity	–	–
Cc1cc(OCCCC(C)(C)C(=O)O)c(C)c(C)c1Br [BJMU-315, 5-(4-bromo-2,3,5-trimethylphenoxy)-2,2-dimethylpentanoic acid]	could significantly inhibit the activity of NF-κB reporter gene	–	–	–	–
CCc1ccc(CCOc2ccc(CC3SC(=O)NC3=O)cc2)nc1 (centres unmarked) [Pioglitazone, pioglitazone]	–	–	–	–	AHDL (high density lipoprotein) (db/db mice): 1.65 ± 0.29 mmol/L; ALDL (low density lipoprotein) (db/db mice): 0.38 ± 0.03 mmol/L; ALT (db/db mice): 225.43 ± 79.31 U/L; AST (db/db mice): 212.79 ± 91.2 U/L; CHOL (total cholesterol) (db/db mice): 3.45 ± 0.26 mmol/L; CK (db/db mice): 1482.86 ± 707.74 U/L; CREA (db/db mice): 12 ± 3.91 µmol/L; TGL (triglycerides) (db/db mice): 2.17 ± 0.61 mmol/L
